Measured values taken from ChEMBL document CHEMBL3526122, “Identification of UDP-glucuronosyltransferases responsible for the glucuronidation of darexaban, an oral factor Xa inhibitor, in human liver and intestine” (Drug Metab Dispos, 2012).

Tests used:
[1] = Drug metabolism in human liver microsomes assessed as glucuronidation after 10 mins by Michaelis-Menten plot analysis in presence of UDPGA and 2% fatty acid free BSA; type: ADME; details: read-out: Km(unbound)
[2] = target: T1, UDP-glucuronosyltransferase 1A9 (Homo sapiens, UniProt O60656); experiment: Activity of human recombinant UGT1A9 expressed in baculovirus-infected insect cells assessed as unbound intrinsic clearance for enzyme-mediated glucuronidation per mg of protein after 5 mins by Michaelis-Menten plot analysis in presence of UDPGA and 0.5% fatty acid free BSA; type: ADME
T1 sequence (O60656 whole entry): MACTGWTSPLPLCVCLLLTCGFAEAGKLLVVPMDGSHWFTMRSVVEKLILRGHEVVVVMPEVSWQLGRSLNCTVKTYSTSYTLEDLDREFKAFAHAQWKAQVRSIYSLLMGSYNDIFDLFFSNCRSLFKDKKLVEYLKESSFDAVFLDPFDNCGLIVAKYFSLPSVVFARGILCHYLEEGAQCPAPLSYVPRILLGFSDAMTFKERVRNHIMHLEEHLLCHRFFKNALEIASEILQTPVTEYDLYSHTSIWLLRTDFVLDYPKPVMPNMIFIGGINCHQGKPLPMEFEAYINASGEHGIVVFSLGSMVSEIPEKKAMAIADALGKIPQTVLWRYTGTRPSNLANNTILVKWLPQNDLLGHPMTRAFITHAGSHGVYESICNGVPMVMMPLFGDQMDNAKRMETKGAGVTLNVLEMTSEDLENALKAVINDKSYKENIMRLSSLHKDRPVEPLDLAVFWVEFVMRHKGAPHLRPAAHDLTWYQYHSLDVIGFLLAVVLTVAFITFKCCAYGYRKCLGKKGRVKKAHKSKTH

[3] = target: T2, UDP-glucuronosyltransferase 2B15 (Homo sapiens, UniProt P54855); experiment: Activity of human recombinant UGT2B15 expressed in baculovirus-infected insect cells assessed as enzyme-mediated glucuronidation per mg of protein after 10 mins in presence of UDPGA; type: ADME
T2 sequence (P54855 whole entry): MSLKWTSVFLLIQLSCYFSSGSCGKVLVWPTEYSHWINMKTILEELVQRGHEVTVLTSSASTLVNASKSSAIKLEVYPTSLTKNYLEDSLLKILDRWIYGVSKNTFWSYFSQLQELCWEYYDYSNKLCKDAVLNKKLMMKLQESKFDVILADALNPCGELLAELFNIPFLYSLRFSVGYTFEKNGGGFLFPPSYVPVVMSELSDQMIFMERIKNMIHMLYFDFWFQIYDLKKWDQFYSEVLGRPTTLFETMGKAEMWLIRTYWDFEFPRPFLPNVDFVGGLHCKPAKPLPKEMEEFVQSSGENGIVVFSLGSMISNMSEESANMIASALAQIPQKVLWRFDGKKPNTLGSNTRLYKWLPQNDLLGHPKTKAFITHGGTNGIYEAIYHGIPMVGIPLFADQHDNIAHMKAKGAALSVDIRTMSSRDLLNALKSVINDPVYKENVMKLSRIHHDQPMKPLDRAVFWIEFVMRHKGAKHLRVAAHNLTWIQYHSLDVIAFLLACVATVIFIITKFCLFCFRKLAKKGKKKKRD

[4] = target: T3, UDP-glucuronosyltransferase 1A8 (Homo sapiens, UniProt Q9HAW9); experiment: Inhibition of human recombinant UGT1A8 after 10 mins in presence of UDPGA; type: ADME
T3 sequence (Q9HAW9 whole entry): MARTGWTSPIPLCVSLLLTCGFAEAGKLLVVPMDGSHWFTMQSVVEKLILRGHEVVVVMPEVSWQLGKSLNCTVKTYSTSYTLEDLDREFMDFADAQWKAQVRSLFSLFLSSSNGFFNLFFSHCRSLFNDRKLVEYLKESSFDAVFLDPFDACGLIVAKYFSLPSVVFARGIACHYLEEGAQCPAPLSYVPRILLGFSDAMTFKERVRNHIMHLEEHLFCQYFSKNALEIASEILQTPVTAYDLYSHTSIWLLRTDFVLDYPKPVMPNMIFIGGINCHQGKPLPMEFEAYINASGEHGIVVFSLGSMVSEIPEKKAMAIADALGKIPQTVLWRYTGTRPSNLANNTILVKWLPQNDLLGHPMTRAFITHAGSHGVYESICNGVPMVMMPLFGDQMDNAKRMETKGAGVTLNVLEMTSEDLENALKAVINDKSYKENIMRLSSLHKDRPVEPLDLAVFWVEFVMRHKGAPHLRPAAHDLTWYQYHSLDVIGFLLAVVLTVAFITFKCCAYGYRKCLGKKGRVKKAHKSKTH

[5] = target: T4, UDP-glucuronosyltransferase 1A10 (Homo sapiens, UniProt Q9HAW8); experiment: Ratio of Ki to Km for human recombinant UGT1A10 expressed in baculovirus-infected insect cells; type: ADME; details: recombinant enzyme
T4 sequence (Q9HAW8 whole entry): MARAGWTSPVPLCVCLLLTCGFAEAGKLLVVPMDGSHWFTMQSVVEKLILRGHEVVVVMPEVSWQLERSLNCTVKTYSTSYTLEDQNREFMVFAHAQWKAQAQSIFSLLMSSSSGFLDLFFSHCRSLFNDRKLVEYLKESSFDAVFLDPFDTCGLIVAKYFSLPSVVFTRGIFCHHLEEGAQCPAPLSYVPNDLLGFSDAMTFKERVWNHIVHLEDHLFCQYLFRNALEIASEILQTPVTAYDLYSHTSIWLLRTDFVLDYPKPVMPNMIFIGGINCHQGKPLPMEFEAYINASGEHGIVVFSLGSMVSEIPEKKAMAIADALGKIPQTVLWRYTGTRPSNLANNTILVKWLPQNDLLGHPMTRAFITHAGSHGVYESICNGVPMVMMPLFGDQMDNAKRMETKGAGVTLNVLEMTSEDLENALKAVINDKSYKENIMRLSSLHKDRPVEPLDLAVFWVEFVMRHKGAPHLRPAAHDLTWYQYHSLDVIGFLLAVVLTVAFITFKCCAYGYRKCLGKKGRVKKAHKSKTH

[6] = Fraction unbound incubation mixture containing human recombinant UGT1A9 at 1 to 250 uM after 10 mins by ultrafiltration method in presence of 2% fatty acid free BSA

Question: For COc1ccc(C(=O)Nc2cccc(O)c2NC(=O)c2ccc(N3CCCN(C)CC3)cc2)cc1.O=C(O)CCC(=O)O, which Km at 10 min [1] is on record?
Answer: 17.6 µM

Question: And the CL free [2]?
Answer: 257 µL/min/mg

Question: What about the Drug metabolism [3] of the same compound?
Answer: < 0.01 nmol/min/mg

Question: And the Ki [4]?
Answer: 354 µM

Question: What about the Ratio [5] of the same compound?
Answer: 6.9

Question: And the Fu [6]?
Answer: 0.237
